Patent publication US20210395226A1, “SUBSTITUTED ARYL COMPOUND AND PREPARATION METHOD THEREFOR AND USE THEREOF” (SICHUAN KELUN-BIOTECH BIOPHARMACEUTICAL CO., LTD., priority 2018, published 2021)
Where two headings read alike, the source gives them in different places.

Key:
[1] = target: T1, Adenosine A1 receptor (human) membrane (Homo sapiens, UniProt P30542); assay: Determination of competitive inhibition constant (Ki) for adenosine A1 receptor, [3H]-DPCPX radioligand; assay type: binding; details: 1.0 nM [3H]-DPCPX
T1 construct: purchased PerkinElmer ES-010-M400UA
T1 sequence (P30542 1-326): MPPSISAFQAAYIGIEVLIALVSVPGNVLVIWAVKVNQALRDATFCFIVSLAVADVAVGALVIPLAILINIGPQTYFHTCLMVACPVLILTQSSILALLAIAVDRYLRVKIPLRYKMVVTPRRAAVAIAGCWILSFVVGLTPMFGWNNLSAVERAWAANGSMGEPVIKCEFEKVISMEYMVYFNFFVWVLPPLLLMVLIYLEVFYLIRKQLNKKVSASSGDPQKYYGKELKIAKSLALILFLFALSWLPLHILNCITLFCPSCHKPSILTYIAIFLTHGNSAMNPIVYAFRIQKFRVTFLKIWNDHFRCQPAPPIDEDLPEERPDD
Method: (§1) Test Example 1: Determination of Competitive Inhibition Constant (Ki) for Adenosine A1 and A2a Receptors
[^3H]-DPCPX (PerkinElmer, NET974250UC),
Adenosine A1 receptor (human) membrane (PerkinElmer, ES-010-M400UA),
assay buffer for A1 (25 mM HEPES, 5 mM MgCl2, 1 mM CaCl2, 100 mM NaCl, pH7.4), used to dilute adenosine A1 receptor (human) membrane and [^3H]-DPCPX;
wash buffer for A1 (25 mM HEPES, 5 mM MgCl2, 1 mM CaCl2, 100 mM NaCl, pH7.4);
(§2) Adenosine A1 receptor membrane was diluted to 0.025 μg/μl with assay buffer for A1, and Adenosine A2a receptor membrane was diluted to 0.05 μg/μl with assay buffer for A2a, so as to obtain Adenosine A1 receptor membrane dilution and Adenosine A2a receptor membrane dilution.
(§3) The compound to be tested and CGS-15943 were diluted with DMSO, and 1 W of the compound to be tested, high value control (0.5% DMSO), low value control (1000 nM CGS-15943) were added to a 96-well plate, and 100 W of Adenosine A1 receptor membrane dilution (containing 2.5 μg of membrane) was added to each well of the 96-well plate to obtain A1 detection plate; following the same steps, 100 W of Adenosine A2a receptor membrane dilution (containing 5.0 μg membrane) was added to each well of the 96-well plate to obtain A2a detection plate.
(§4) To the A1 detection plate, 100 μl of radioisotope-labeled ligand [^3H]-DPCPX (diluted with assay buffer for A1, working concentration of which was 1.0 nM) was added; and to the A2a detection plate, 100 μl of radioisotope-labeled ligand [^3H]-CGS-21680 (diluted with assay buffer for A2a, working concentration of which was 6.0 nM) was added. The A1 and A2a detection plates were sealed with tape, and incubated at room temperature for 1 h and 2 h, respectively.
(§5) Unifilter-96 GF/C filter plates were prepared, 50 μl of 0.3% PEI was added to each well of the Unifilter-96 GF/C filter plates, and the resulting filter plates were incubated at room temperature for not less than 0.5 h.
(§6) After the incubation was completed, the reaction solution was transferred from the A1 detection plate and the A2a detection plate to two Unifilter-96 GF/C filter plates, and washed with pre-cooled wash buffer for A1 and wash buffer for A2a, and then the filter plates were dried, sealed at bottom, then 50 W of Microscint 20 fluid scintillation cocktail was added, and then the filter plates were sealed at top, and counted by MicroBeta2 Reader.
(§7) Inhibition rate %=100−(signal value of test well−signal average value of low value control)/(signal average value of high value control−signal average value of low value control)*100.
(§8) EXCEL XLfit was used to fit IC50.
(§9) The calculation formula for competitive inhibition constant (Ki) was: Ki=IC50/(1+concentration of isotope-labeled ligand/Kd), wherein Kd was the dissociation constant of the isotope-labeled ligand.

[2] = target: T2, Adenosine A2a receptor (human) membrane (Homo sapiens, UniProt P29274); assay: Determination of competitive inhibition constant (Ki) for adenosine A2a receptor, [3H]-CGS-21680 radioligand; assay type: binding; details: for Ki(A1)/Ki(A2a): selectivity ratio A1 over A2a
T2 construct: purchased PerkinElmer RBHA2AM400UA
T2 sequence (P29274 whole entry): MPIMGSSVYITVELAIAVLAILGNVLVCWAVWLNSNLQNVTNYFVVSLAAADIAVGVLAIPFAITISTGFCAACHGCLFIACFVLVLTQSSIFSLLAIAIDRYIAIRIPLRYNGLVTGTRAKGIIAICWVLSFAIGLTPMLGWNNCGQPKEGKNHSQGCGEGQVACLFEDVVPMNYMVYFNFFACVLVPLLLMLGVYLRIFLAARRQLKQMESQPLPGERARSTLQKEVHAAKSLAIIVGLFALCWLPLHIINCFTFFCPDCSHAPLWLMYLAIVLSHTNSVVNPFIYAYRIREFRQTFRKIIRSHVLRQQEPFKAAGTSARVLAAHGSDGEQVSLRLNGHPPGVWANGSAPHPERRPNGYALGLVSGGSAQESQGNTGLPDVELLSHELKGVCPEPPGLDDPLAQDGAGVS
Method: as §1
Adenosine A2a receptor (human) membrane (PerkinElmer, RBHA2AM400UA),
assay buffer for A2a (50 mM Tris-HCl, 10 mM MgCl2, 1 mM EDTA, pH7.4), used to dilute adenosine A2a receptor (human) membrane (human origin) and [^3H]-CGS-21680; and
wash buffer for A2a (50 mM Tris-HCl, 154 mM NaCl, pH7.4).
as §2, §3, §4, §5, §6, §7, §8, §9

[3] = human A2a receptor membrane, 6.0 nM [3H]-CGS-21680, read-out: Ki(A2a)

Cc1ncnc2ccc(-c3ccc(N)nc3-c3ccc(F)cc3)cc12 [Compound 1, 6-(4-fluorophenyl)-5-(4-methylquinazolin-6-yl)pyridin-2-amine]
Ki [1]: 3250 nM
Ki [2, 3]: 9.6 nM
Ki(A1)/Ki(A2a) [2]: 339.0

Cc1ncnc2ccc(-c3cc(F)c(N)nc3-c3ccc(F)cc3)cc12 [Compound 2, 3-fluoro-6-(4-fluorophenyl)-5-(4-methylquinazolin-6-yl)pyridin-2-amine]
Ki [1]: 698 nM
Ki [2, 3]: 2.7 nM
Ki(A1)/Ki(A2a) [2]: 258.6

Cc1ncnc2ccc(-c3cnc(N)nc3-c3ccc(F)cc3)cc12 [Compound 3, 4-(4-fluorophenyl)-5-(4-methylquinazolin-6-yl)pyrimidin-2-amine]
Ki [1]: 178 nM
Ki [2, 3]: 1.6 nM
Ki(A1)/Ki(A2a) [2]: 111.3

Cc1ncnc2ccc(-c3cc(F)c(NC(=O)N(C)Cc4ccccn4)nc3-c3ccc(F)cc3)cc12 [Compound 4, 3-(3-fluoro-6-(4-fluorophenyl)-5-(4-methylquinazolin-6-yl)pyridin-2-yl)-1-methyl-1-(pyridin-2-ylmethyl)urea]
Ki [1]: 5680 nM
Ki [2]: 13.6 nM
Ki(A1)/Ki(A2a) [2]: 417.3

CNC(=O)Nc1ncc(-c2ccc3ncnc(C)c3c2)c(-c2ccc(F)cc2)n1 [Compound 5, 1-(4-(4-fluorophenyl)-5-(4-methylquinazolin-6-yl)pyrimidin-2-yl)-3-methylurea]
Ki [1]: > 7920 nM
Ki [2, 3]: 15.6 nM
Ki(A1)/Ki(A2a) [2]: >507.5

Cc1ncnc2ccc(-c3cnc(NC(=O)NCc4ccccn4)nc3-c3ccc(F)cc3)cc12 [Compound 6, 1-(4-(4-fluorophenyl)-5-(4-methylquinazolin-6-yl)pyrimidin-2-yl)-3-(pyridine-2-methyl)urea]
Ki [1]: > 7920 nM
Ki [2, 3]: 14.3 nM
Ki(A1)/Ki(A2a) [2]: >553.6

Cc1ncnc2ccc(-c3cnc(NC(=O)N(C)Cc4ccccn4)nc3-c3ccc(F)cc3)cc12 [Compound 9, 3-(4-(4-fluorophenyl)-5-(4-methylquinazolin-6-yl)pyrimidin-2-yl)-1-methyl-1-(pyridine-2-methyl)urea]
Ki [1]: 1230 nM
Ki [2, 3]: 3.7 nM
Ki(A1)/Ki(A2a) [2]: 331.8

Cc1ncnc2ccc(-c3cnc(NC(=O)N4CCC(C#N)CC4)nc3-c3ccc(F)cc3)cc12 [Compound 10, 4-cyano-N-(4-(4-fluorophenyl)-5-(4-methylquinazolin-6-yl)pyrimidin-2-yl) piperidine-1-carboxamide]
Ki [1]: 690 nM
Ki [2, 3]: 4.7 nM
Ki(A1)/Ki(A2a) [2]: 146.8

Cc1ncnc2ccc(-c3cnc(NC(=O)N(C)c4ccccc4)nc3-c3ccc(F)cc3)cc12 [Compound 12, 3-(4-(4-fluorophenyl)-5-(4-methylquinazolin-6-yl)pyrimidin-2-yl)-1-methyl-1-phenylurea]
Ki [1]: 1210 nM
Ki [2, 3]: 8.8 nM
Ki(A1)/Ki(A2a) [2]: 137.6

COC1CCN(C(=O)Nc2ncc(-c3ccc4ncnc(C)c4c3)c(-c3ccc(F)cc3)n2)CC1 [Compound 13, N-(4-(4-fluorophenyl)-5-(4-methylquinazolin-6-yl)pyrimidin-2-yl)-4-methoxypiperidine-1-carboxamide]
Ki [1]: 1320 nM
Ki [2, 3]: 9.8 nM
Ki(A1)/Ki(A2a) [2]: 134.5

Cc1cc(-c2cnc(NC(=O)N(C)Cc3ccccn3)nc2-c2ccc(F)cc2)cc(Cl)n1 [Compound 14, 3-(5-(2-chloro-6-methylpyridin-4-yl)-4-(4-fluorophenyl)pyrimidin-2-yl)-1-methyl-1-(pyridin-2-ylmethyl)urea]
Ki [1]: 5310 nM
Ki [2, 3]: 8.1 nM
Ki(A1)/Ki(A2a) [2]: 656.1

CN(Cc1ccccn1)C(=O)Nc1ncc(-c2cc(Cl)nc(C(F)(F)F)c2)c(-c2ccc(F)cc2)n1 [Compound 16, 3-(5-(2-chloro-6-(trifluoromethyl)pyridin-4-yl)-4-(4-fluorophenyl)pyrimidin-2-yl)-1-methyl-1-(pyridin-2-ylmethyl)urea]
Ki [1]: 7770 nM
Ki [2, 3]: 21.5 nM
Ki(A1)/Ki(A2a) [2]: 361.6

Cc1cc(-c2cnc(N)nc2-c2ccc(F)cc2)cc(Cl)n1 [Compound 17, 5-(2-chloro-6-methylpyridin-4-yl)-4-(4-fluorophenyl)pyrimidin-2-amine]
Ki [1]: 205 nM
Ki [2, 3]: 4.6 nM
Ki(A1)/Ki(A2a) [2]: 44.5

Cc1cc(-c2cnc(NC(=O)N3CCC(C#N)CC3)nc2-c2ccc(F)cc2)cc(Cl)n1 [Compound 18, N-(5-(2-chloro-6-methylpyridin-4-yl)-4-(4-fluorophenyl)pyrimidin-2-yl)-4-cyanopiperidine-1-carboxamide]
Ki [1]: 3070 nM
Ki [2, 3]: 18.9 nM
Ki(A1)/Ki(A2a) [2]: 162.5

Cc1cc(Cl)cc(-c2cnc(NC(=O)N3CCC(N4CCCCC4)CC3)nc2-c2ccc(F)cc2)c1 [Compound 21, N-(5-(3-chloro-5-methylphenyl)-4-(4-fluorophenyl)pyrimidin-2-yl)-[1,4′-dipiperidine]-1′-carboxamide]
Ki [1]: 4670 nM
Ki [2, 3]: 7.3 nM
Ki(A1)/Ki(A2a) [2]: 639.1

Cc1cc(Cl)cc(-c2cnc(NC(=O)N3CCC(N4CCCCC4)CC3)nc2-c2ccc(C)o2)c1 [Compound 22, N-(5-(3-chloro-5-methylphenyl)-4-(5-methylfuran-2-yl)pyrimidin-2-yl)-[1,4′-bipiperidine]-1′-carboxamide]
Ki [1]: 1590 nM
Ki [2, 3]: 6.6 nM
Ki(A1)/Ki(A2a) [2]: 240.7

Cc1ncnc2ccc(-c3nnc(NC(=O)N(C)Cc4ccccn4)nc3-c3ccc(F)cc3)cc12 [Compound 24, 3-(5-(4-fluorophenyl)-6-(4-methylquinazolin-6-yl)-1,2,4-triazolin-3-yl)-1-methyl-1-(pyridine-2-methyl)urea]
Ki [1]: 3730 nM
Ki [2]: 26.8 nM
Ki(A1)/Ki(A2a) [2]: 139.1

Cc1ccc(-c2nc(NC(=O)N(C)Cc3ccccn3)nnc2-c2ccc3ncnc(C)c3c2)o1 [Compound 25, 1-methyl-3-(5-(5-methylfuran-2-yl)-6-(4-methylquinazolin-6-yl)-1,2,4-triazin-3-yl)-1-(pyridin-2-yl-methyl)urea]
Ki [1]: 178 nM
Ki [2]: 3.9 nM
Ki(A1)/Ki(A2a) [2]: 45.7

Cc1cc(-c2nnc(NC(=O)N3CCC(N4CCCCC4)CC3)nc2-c2ccc(C)o2)cc(Cl)n1 [Compound 26, N-(6-(2-chloro-6-methylpyridin-4-yl)-5-(5-methylfuran-2-yl)-1,2,4-triazin-3-yl)-[1,4′-bipiperidine]-1′-carboxamide]
Ki [1]: 4000 nM
Ki [2, 3]: 9.9 nM
Ki(A1)/Ki(A2a) [2]: 403.8

Cc1ccc(-c2nc(NC(=O)N3CCC(N4CCCCC4)CC3)nnc2-c2ccc3ncnc(C)c3c2)o1 [Compound 27, N-(5-(5-methylfuran-2-yl)-6-(4-methylquinazolin-6-yl)-1,2,4-triazin-3-yl)-[1,4′-bipiperidine]-1′-carboxamide]
Ki [1]: 422 nM
Ki [2, 3]: 4 nM
Ki(A1)/Ki(A2a) [2]: 105.5

Cc1cc(Cl)cc(-c2nnc(NC(=O)N3CCC(N4CCCCC4)CC3)nc2-c2ccc(C)o2)c1 [Compound 28, N-(6-(3-chloro-5-methylphenyl)-5-(5-methylfuran-2-yl)-1,2,4-triazin-3-yl)-[1,4′-bipiperidine]-1′-carboxamide]
Ki [1]: 1780 nM
Ki [2, 3]: 9 nM
Ki(A1)/Ki(A2a) [2]: 197.5

Cc1ncnc2ccc(-c3ccc(NC(=O)N(C)Cc4ccccn4)nc3-c3ccc(F)cc3)cc12 [Compound 29, 3-(6-(4-fluorophenyl)-5-(4-methylquinazolin-6-yl)pyridin-2-yl)-1-methyl-1-(pyridine-2-methyl)urea]
Ki [1]: 5030 nM
Ki [2]: 11.8 nM
Ki(A1)/Ki(A2a) [2]: 425.9
